Source: the supplement of paper PMC8967900

Assays:
Test in all cases: selective drug sensitivity score (sDSS, relative to normal bone marrow) (sDSS (score)); higher = more potent and effective on the cell line relative to normal bone marrow cells
Settings in all cases: 72 h
380 = tested on: 380
ALL-PO = tested on: ALL-PO
ALL-SIL = tested on: ALL-SIL
COG-LL-317 = tested on: COG-LL-317
COG-LL-355h = tested on: COG-LL-355h
COG-LL-394h = tested on: COG-LL-394h
COG-LL-402h = tested on: COG-LL-402h
JURKAT = tested on: JURKAT
KARPAS-45 = tested on: KARPAS-45
KASUMI-9 = tested on: KASUMI-9
MHH-CALL-2 = tested on: MHH-CALL-2
MHH-CALL-3 = tested on: MHH-CALL-3
MOLT-4 = tested on: MOLT-4
P12-ICHIKAWA = tested on: P12-ICHIKAWA
P30-OHKUBO = tested on: P30-OHKUBO
PEER = tested on: PEER
PF-382 = tested on: PF-382
RCH-ACV = tested on: RCH-ACV
RPMI-8402 = tested on: RPMI-8402
TMD5 = tested on: TMD5
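Note: ALL cell lines in 384-well plates, five doses spanning 10,000-fold, each plate scaled between vehicle and 100 µmol/L benzalkonium chloride controls, sDSS an adapted area-under-curve metric.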

SMILES | selective drug sensitivity score 380 | selective drug sensitivity score (ALL-PO) | selective drug sensitivity score (ALL-SIL) | selective drug sensitivity score (COG-LL-317) | selective drug sensitivity score (COG-LL-355h) | selective drug sensitivity score (COG-LL-394h) | selective drug sensitivity score (COG-LL-402h) | selective drug sensitivity score (JURKAT) | selective drug sensitivity score (KARPAS-45) | selective drug sensitivity score (KASUMI-9) | selective drug sensitivity score (MHH-CALL-2) | selective drug sensitivity score (MHH-CALL-3) | selective drug sensitivity score (MOLT-4) | selective drug sensitivity score (P12-ICHIKAWA) | selective drug sensitivity score (P30-OHKUBO) | selective drug sensitivity score (PEER) | selective drug sensitivity score (PF-382) | selective drug sensitivity score (RCH-ACV) | selective drug sensitivity score (RPMI-8402) | selective drug sensitivity score (TMD5)
CCN(c1cc(-c2ccc(CN3CCOCC3)cc2)cc(C(=O)NCc2c(C)cc(C)[nH]c2=O)c1C)C1CCOCC1 [Tazemetostat] (top concentration 10000 nM) | -0.08 | 0.32 | 0.12 | -0.08 | -0.08 | -0.08 | -0.08 | 0.02 | 1.32 | 0.92 | 6.72 | -0.08 | -0.08 | 0.02 | 0.42 | 0.32 | -0.08 | -0.08 | 0.22 | -0.08
CCS(=O)(=O)Nc1ccc(Oc2ccc(F)cc2F)c(-c2cn(C)c(=O)c3[nH]ccc23)c1 [Mivebresib] (top concentration 10000 nM) | -13 | 6.1 | 1.7 | 11.5 | 6 | 1.6 | 12.7 | 3.55e-15 | 14 | 17.4 | 14.8 | 17.2 | -3.5 | 9.9 | 15.3 | 1.1 | 8 | 18.1 | 4.6 | -5.7
CCCCCCCCCCCCCCCCCCOP(=O)([O-])OC1CC[N+](C)(C)CC1 [Perifosine] (top concentration 2500 nM) | -0.16 | 0.94 | -0.36 | -0.36 | 0.64 | -0.36 | 4.04 | -0.36 | -0.26 | -0.36 | -0.26 | -0.36 | -0.36 | -0.36 | -0.36 | -0.36 | -0.36 | 2.34 | -0.36 | -0.36
O=C(NOCCO)c1ccc2cncn2c1Nc1ccc(I)cc1F [GDC-0623] (top concentration 2500 nM) | -0.4 | -3.3 | -3.4 | -0.8 | -0.4 | -3.4 | -3.2 | -3.2 | -3.1 | -0.4 | 0.6 | 1.7 | -3.3 | -1.7 | -2.4 | -0.1 | -3.3 | -3.4 | -3.3 | -0.7
C=CC(=O)Nc1cccc(Nc2nc(Nc3ccc(N4CCN(C(C)=O)CC4)cc3OC)ncc2C(F)(F)F)c1 [Rociletinib] (top concentration 10000 nM) | -0.16 | 10.3 | 3.64 | 1.44 | 5.84 | 5.24 | 5.24 | 2.64 | 3.14 | 5.14 | 1.94 | -1.06 | 2.04 | 1.94 | 4.24 | 4.24 | 0.64 | 2.54 | 2.24 | -2.06
Cc1nc2cccc(N)c2c(=O)n1C1CCC(=O)NC1=O (stereo not given) [Avadomide (CC122)] (top concentration 10000 nM) | 0 | 0 | 0 | 0 | 2.6 | 0 | 0.2 | 0 | 0 | 10.7 | 0 | 0 | 0 | 0 | 5.9 | 0 | 0 | 10.5 | 0 | 3.5
CC[C@@H]1[C@H](F)C(=O)N[C@@H]1COc1nccc2cc(C(N)=O)c(OC)cc12 (top concentration 10000 nM) | -1.32 | 2.08 | -1.32 | 1.28 | 1.28 | 0.38 | 3.08 | 0.48 | 2.58 | 0.08 | -0.22 | 1.58 | 2.48 | 0.18 | 2.38 | 1.08 | -0.42 | 2.58 | 1.38 | -1.32
Cc1ccc(NS(=O)(=O)c2cccc(C#N)c2)c2[nH]cc(C#N)c12 [E7820] (top concentration 50000 nM) | 30.8 | 4.92 | 20.2 | 21.9 | 6.22 | -1.58 | 17.2 | 21.7 | 20.1 | 12.7 | 19.4 | 7.82 | 1.82 | 15.4 | 17.3 | 17.8 | 10.2 | 23.2 | 17.9 | 7.32
CNC(=O)[C@@H](NC(=O)[C@H](CC(C)C)[C@H](O)C(=O)NO)C(C)(C)C [Marimastat] (top concentration 10000 nM) | -1.28 | 5.22 | -1.28 | -1.28 | -1.28 | -0.88 | -0.38 | 2.42 | 3.32 | -1.28 | 9.42 | -1.28 | 0.62 | 1.22 | -0.18 | 1.42 | -0.68 | 2.02 | -0.68 | 3.72
